Experimental data from patent publication US20190040016A1, “INDOLE AND INDAZOLE COMPOUNDS AND THERAPEUTIC USES THEREOF” (REGENTS OF THE UNIVERSITY OF MINNESOTA, priority 2016, published 2019).

How the values were obtained:
[1] = tested on: 4T1 (a metastatic murine breast cancer cell line); assay: In vitro cytotoxicity evaluation, 4T1; assay type: cell-based; conditions: Mus musculus; 4T1 cells; average ± SEM of minimum three individual experiments
Description: (§1) […] Cell line MDA-MB-231 (a human triple negative breast cancer cell line) and cell line 4T1 (a metastatic murine breast cancer cell line) were used for testing.

[2] = tested on: MDA-MB-231 (a human triple negative breast cancer cell line); assay: In vitro cytotoxicity evaluation, MDA-MB-231; assay type: cell-based; conditions: MDA-MB-231 cells, average ± SEM of minimum three individual experiments
Description: as §1

For `COC(=O)C(O)(CO)COC(=O)c1nn(-c2ccc(N(Cc3ccc(Cl)cc3)Cc3ccc(Cl)cc3)cc2)c2ccccc12` (centres unmarked) [Compound A-6], which IC50 [1] is on record?
The IC50 was 4.8 ± 1.01 µM.

And the IC50 [2]?
The IC50 was 4.51 ± 0.95 µM.

Which IC50 [1] does the source give for `C=C(COC(=O)c1nn(-c2ccc(N(Cc3ccc(Cl)cc3)Cc3ccc(Cl)cc3)cc2)c2ccccc12)C(=O)OC` [Compound A-5] here?
Its IC50 is greater than 25 µM.

What about the IC50 [2] of the same molecule?
Its IC50 is greater than 25 µM.

Which results are given for `COC(=O)C(O)(CO)COC(=O)c1nn(-c2ccc(N(Cc3ccc(OC)cc3)Cc3ccc(OC)cc3)cc2)c2ccccc12` (centres unmarked) [Compound A-10]?
IC50 [1]: 7.12 ± 1.13 µM; IC50 [2]: 4.96 ± 1.19 µM

For `O=C(O)c1nn(-c2ccc(N(Cc3ccccc3)Cc3ccccc3)cc2)c2ccccc12` [Compound A-1], which IC50 [1] is on record?
Its IC50 is greater than 25 µM.

What about the IC50 [2] of the same molecule?
The IC50 was greater than 25 µM.

`C=C(COC(=O)c1nn(-c2ccc(N(Cc3ccc(F)cc3)Cc3ccc(F)cc3)cc2)c2ccccc12)C(=O)OC` [Compound A-7] was tested. Which IC50 [1] did it give?
Its IC50 is 10.8 ± 2.28 µM.

What about the IC50 [2] of the same molecule?
Its IC50 is greater than 25 µM.

How did the IC50 [1] turn out when `C=C(COC(=O)c1nn(-c2ccc(N(Cc3ccc(OC)cc3)Cc3ccc(OC)cc3)cc2)c2ccccc12)C(=O)OC` [Compound A-9] was run?
Its IC50 is greater than 25 µM.

And the IC50 [2]?
Its IC50 is greater than 25 µM.

How did the IC50 [1] turn out when `COC(=O)C(O)(CO)COC(=O)c1nn(-c2ccc(N(Cc3ccc(F)cc3)Cc3ccc(F)cc3)cc2)c2ccccc12` (centres unmarked) [Compound A-8] was run?
The IC50 was 2.87 ± 0.86 µM.

And the IC50 [2]?
Its IC50 is 3.02 ± 0.68 µM.

With `C=C(COC(=O)c1nn(-c2ccc(N(Cc3ccccc3)Cc3ccccc3)cc2)c2ccccc12)C(=O)OC` [Compound A-3] as the molecule, how does the IC50 [1] read?
The IC50 was greater than 25 µM.

What about the IC50 [2] of the same molecule?
Its IC50 is greater than 25 µM.

`COC(=O)C(O)(CO)COC(=O)c1nn(-c2ccc(N(Cc3ccccc3)Cc3ccccc3)cc2)c2ccccc12` (centres unmarked) [Compound A-4] was tested. Which IC50 [1] did it give?
The IC50 was 4.9 ± 0.42 µM.

What about the IC50 [2] of the same molecule?
The IC50 was 2.33 ± 0.48 µM.

`COC(=O)c1nn(-c2ccc(N(Cc3ccccc3)Cc3ccccc3)cc2)c2ccccc12` [Compound A-2] was tested. Which IC50 [1] did it give?
The IC50 was greater than 25 µM.

And the IC50 [2]?
The IC50 was greater than 25 µM.
